ChEMBL document CHEMBL5291721, “A preclinical secondary pharmacology resource illuminates target-adverse drug reaction associations of marketed drugs” (Nat Commun, 2023)

What was measured:
Adenosine receptor A2a = Adenosine receptor A2a (Homo sapiens, UniProt P29274)
[1] = target: Beta-1 adrenergic receptor (Homo sapiens, UniProt P08588); assay type: functional
[2] = target: T1, Type-1 angiotensin II receptor (Homo sapiens, UniProt P30556)
T1 sequence (P30556 whole entry): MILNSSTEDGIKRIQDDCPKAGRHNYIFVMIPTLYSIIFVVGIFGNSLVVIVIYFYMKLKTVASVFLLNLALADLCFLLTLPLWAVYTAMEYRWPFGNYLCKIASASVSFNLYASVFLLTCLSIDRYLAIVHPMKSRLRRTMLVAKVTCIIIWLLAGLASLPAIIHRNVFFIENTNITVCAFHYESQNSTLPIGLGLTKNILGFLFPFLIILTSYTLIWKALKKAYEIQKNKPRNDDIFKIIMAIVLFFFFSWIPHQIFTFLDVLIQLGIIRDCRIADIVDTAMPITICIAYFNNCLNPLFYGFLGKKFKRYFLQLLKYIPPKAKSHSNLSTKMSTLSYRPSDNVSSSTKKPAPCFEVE

[3] = target: T2, Cholecystokinin receptor type A (Homo sapiens, UniProt P32238)
T2 sequence (P32238 whole entry): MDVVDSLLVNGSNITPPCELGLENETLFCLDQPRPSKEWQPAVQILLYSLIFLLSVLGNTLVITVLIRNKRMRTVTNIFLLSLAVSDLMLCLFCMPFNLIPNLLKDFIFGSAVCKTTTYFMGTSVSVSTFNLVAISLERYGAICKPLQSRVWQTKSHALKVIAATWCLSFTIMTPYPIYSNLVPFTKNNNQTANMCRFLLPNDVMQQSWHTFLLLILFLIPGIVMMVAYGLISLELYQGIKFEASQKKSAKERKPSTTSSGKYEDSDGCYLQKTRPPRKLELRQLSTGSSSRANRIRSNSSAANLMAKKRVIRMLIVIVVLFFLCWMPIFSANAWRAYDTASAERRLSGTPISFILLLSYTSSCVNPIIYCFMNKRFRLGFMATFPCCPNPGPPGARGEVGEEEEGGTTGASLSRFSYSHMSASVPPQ

[4] = target: T3, Gastrin/cholecystokinin type B receptor (Homo sapiens, UniProt P32239)
T3 sequence (P32239 whole entry): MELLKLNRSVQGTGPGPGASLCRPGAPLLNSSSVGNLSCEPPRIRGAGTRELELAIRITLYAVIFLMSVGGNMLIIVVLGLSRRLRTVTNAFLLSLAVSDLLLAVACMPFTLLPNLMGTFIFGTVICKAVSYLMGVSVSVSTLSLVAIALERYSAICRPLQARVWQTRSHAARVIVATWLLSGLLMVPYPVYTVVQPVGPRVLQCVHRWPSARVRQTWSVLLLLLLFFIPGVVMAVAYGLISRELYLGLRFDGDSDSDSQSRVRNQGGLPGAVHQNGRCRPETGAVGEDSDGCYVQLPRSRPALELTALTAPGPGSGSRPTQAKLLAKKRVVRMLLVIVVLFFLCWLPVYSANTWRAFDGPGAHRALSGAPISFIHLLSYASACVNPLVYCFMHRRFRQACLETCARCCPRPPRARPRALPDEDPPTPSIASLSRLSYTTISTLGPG

Cannabinoid receptor 1 = Cannabinoid receptor 1 (Homo sapiens, UniProt P21554); assay type: functional, cell-based
[5] = target: Growth hormone secretagogue receptor type 1 (Homo sapiens, UniProt Q92847)
Histamine H2 receptor = Histamine H2 receptor (Homo sapiens, UniProt P25021); assay type: functional, cell-based
[6] = target: 5-hydroxytryptamine receptor 2A (Homo sapiens, UniProt P28223); assay type: functional, cell-based
[7] = target: 5-hydroxytryptamine receptor 2B (Homo sapiens, UniProt P41595); assay type: functional, cell-based
[8] = target: Sodium-dependent serotonin transporter (Homo sapiens, UniProt P31645)
[9] = target: cGMP-inhibited 3',5'-cyclic phosphodiesterase 3A (Homo sapiens, UniProt Q14432); assay type: functional
[10] = target: Glutamate receptor ionotropic, NMDA 1 (Rattus norvegicus, UniProt P35439)
[11] = target: Delta-type opioid receptor (Homo sapiens, UniProt P41143)
Thromboxane A2 receptor = target: T4, Thromboxane A2 receptor (Homo sapiens, UniProt P21731)
T4 sequence (P21731 whole entry): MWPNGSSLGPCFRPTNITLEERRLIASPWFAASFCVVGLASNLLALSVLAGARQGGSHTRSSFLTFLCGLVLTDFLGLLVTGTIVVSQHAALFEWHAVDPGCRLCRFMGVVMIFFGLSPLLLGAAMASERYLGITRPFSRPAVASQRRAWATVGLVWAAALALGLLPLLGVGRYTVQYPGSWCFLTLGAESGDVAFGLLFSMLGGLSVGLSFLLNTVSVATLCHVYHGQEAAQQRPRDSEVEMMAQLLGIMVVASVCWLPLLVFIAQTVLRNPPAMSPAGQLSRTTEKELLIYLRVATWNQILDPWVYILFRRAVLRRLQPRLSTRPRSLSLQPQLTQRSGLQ

[12] = target: T5, 5-hydroxytryptamine receptor 1A (Homo sapiens, UniProt P08908); assay type: functional, cell-based
T5 sequence (P08908 whole entry): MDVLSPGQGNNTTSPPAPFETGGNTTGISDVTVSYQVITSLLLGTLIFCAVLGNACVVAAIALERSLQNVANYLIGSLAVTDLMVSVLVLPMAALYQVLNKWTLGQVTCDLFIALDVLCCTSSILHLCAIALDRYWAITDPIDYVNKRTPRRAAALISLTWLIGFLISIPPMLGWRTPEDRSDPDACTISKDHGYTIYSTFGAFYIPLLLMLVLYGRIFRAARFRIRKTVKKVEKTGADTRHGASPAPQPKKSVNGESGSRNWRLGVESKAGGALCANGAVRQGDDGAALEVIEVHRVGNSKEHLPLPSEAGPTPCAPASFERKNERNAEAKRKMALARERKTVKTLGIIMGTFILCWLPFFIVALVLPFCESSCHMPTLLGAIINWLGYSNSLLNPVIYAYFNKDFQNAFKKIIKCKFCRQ
Further: assay procedure not described here.

Sequence of Cannabinoid receptor 1 (P21554 whole entry): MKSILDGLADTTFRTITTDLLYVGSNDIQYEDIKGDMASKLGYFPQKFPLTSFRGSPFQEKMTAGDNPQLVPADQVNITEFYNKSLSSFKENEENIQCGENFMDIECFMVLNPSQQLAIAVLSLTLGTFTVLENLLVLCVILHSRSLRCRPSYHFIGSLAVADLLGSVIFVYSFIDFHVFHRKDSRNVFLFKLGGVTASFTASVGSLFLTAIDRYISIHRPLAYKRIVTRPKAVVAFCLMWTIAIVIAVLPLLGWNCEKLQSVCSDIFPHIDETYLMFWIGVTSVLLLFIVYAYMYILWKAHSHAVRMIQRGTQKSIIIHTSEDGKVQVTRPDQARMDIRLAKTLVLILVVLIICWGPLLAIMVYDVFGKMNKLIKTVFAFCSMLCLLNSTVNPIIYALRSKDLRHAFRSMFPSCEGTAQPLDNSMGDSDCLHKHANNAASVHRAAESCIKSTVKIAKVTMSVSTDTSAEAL
Sequence of Beta-1 adrenergic receptor (P08588 whole entry): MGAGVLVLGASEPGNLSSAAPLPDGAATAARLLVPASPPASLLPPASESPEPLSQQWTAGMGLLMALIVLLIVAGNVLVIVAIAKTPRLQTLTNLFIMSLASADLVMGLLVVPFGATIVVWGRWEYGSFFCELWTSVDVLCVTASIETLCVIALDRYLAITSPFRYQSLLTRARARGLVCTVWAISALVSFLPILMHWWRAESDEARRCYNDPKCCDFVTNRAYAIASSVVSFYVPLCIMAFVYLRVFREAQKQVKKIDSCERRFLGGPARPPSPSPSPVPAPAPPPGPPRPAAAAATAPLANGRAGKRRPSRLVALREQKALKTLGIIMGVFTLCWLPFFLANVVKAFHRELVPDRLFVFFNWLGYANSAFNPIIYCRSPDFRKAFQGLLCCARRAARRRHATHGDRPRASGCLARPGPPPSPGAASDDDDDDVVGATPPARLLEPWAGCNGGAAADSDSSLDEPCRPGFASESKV
Sequence of 5-hydroxytryptamine receptor 2A (P28223 whole entry): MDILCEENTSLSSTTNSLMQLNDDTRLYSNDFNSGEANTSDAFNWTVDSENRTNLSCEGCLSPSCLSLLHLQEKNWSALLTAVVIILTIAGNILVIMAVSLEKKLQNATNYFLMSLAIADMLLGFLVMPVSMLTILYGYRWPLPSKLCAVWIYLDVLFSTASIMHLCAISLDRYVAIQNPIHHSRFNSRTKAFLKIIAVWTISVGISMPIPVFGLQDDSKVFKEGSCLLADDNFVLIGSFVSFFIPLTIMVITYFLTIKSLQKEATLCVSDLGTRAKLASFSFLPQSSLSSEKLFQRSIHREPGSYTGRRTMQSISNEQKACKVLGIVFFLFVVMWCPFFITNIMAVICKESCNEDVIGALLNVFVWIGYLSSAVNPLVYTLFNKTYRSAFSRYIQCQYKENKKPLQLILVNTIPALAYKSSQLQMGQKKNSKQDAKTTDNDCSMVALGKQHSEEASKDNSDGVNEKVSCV
Sequence of Delta-type opioid receptor (P41143 whole entry): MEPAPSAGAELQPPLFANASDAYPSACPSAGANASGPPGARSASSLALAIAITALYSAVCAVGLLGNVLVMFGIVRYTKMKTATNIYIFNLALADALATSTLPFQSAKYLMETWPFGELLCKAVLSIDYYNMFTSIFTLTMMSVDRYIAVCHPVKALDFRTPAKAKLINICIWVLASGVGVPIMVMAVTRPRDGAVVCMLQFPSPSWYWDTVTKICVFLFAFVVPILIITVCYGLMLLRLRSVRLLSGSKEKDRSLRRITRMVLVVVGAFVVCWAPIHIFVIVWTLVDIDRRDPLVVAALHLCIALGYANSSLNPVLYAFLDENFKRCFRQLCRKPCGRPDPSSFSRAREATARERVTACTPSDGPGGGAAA
Sequence of cGMP-inhibited 3',5'-cyclic phosphodiesterase 3A (Q14432 whole entry): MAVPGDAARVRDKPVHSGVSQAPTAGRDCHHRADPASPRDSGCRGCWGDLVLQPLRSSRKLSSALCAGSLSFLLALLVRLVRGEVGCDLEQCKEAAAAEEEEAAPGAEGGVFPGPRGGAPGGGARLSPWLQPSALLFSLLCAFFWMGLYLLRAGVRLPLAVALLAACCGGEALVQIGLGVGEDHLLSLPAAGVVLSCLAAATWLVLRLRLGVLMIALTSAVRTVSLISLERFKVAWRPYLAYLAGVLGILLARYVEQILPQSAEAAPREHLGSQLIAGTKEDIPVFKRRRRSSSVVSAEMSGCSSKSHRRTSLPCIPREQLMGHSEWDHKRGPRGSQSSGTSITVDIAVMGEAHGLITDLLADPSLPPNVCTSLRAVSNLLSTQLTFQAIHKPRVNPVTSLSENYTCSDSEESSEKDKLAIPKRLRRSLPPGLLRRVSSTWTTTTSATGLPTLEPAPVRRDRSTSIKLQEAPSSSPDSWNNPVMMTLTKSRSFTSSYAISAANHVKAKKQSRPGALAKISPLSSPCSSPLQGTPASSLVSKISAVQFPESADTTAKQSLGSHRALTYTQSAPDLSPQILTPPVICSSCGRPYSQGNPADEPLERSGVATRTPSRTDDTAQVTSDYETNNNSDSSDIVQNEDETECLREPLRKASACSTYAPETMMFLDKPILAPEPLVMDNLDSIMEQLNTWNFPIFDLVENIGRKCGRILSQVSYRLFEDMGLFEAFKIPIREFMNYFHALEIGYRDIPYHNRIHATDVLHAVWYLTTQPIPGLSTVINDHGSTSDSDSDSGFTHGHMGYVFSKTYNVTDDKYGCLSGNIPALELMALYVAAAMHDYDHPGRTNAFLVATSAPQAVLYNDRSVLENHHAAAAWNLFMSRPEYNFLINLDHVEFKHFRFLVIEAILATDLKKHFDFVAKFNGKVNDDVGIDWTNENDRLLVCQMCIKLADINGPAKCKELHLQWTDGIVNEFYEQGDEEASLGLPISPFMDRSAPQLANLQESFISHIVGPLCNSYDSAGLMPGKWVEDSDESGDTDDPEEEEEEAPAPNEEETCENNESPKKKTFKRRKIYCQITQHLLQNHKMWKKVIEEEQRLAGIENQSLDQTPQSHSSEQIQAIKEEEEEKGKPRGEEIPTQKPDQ
Sequence of Histamine H2 receptor (P25021 whole entry): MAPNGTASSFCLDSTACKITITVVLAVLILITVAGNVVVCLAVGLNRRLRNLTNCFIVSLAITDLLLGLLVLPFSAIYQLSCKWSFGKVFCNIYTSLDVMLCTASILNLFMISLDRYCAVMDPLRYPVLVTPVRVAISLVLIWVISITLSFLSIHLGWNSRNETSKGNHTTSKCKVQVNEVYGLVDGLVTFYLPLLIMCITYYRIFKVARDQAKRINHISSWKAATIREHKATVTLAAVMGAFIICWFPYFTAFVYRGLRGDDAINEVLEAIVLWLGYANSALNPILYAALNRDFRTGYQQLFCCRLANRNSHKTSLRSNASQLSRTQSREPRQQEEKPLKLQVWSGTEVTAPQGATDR
Sequence of Growth hormone secretagogue receptor type 1 (Q92847 whole entry): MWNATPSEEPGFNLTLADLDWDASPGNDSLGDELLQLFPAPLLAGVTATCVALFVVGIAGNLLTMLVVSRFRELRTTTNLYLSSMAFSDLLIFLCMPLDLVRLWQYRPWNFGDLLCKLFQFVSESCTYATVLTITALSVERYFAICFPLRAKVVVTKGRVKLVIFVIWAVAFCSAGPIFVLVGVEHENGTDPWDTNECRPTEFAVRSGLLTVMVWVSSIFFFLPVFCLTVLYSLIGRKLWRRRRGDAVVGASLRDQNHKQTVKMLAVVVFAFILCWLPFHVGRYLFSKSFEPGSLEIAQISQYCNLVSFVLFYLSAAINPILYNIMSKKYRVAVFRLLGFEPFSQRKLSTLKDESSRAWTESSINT
Sequence of 5-hydroxytryptamine receptor 2B (P41595 whole entry): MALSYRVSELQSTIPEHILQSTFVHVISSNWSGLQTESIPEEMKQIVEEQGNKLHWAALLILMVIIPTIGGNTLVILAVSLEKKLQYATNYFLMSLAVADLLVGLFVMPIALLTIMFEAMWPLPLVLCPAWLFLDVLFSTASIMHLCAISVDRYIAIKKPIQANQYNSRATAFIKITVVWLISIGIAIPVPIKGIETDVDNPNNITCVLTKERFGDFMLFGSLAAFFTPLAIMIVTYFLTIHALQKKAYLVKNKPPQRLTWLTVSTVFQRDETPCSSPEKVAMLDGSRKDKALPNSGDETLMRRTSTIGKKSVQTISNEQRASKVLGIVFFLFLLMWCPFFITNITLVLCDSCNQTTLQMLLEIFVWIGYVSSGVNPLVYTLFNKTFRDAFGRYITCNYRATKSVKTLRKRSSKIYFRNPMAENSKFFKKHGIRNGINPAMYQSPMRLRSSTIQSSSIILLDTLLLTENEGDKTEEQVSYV
Sequence of Adenosine receptor A2a (P29274 whole entry): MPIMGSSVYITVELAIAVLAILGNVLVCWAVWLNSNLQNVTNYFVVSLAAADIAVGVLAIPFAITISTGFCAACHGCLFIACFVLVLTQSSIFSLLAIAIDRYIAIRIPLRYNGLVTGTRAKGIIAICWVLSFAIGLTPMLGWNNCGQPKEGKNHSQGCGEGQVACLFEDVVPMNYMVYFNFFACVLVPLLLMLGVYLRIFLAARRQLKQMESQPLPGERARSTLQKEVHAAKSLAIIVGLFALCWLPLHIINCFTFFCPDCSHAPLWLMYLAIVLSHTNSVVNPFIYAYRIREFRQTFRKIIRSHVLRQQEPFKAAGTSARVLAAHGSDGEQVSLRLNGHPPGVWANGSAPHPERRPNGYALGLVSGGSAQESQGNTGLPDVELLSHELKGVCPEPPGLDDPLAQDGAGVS

| SMILES | AC50 (Adenosine receptor A2a) [µM] | AC50 [1] [µM] | AC50 [2] [µM] | AC50 [3] [µM] | AC50 [4] [µM] | AC50 (Cannabinoid receptor 1) [µM] | AC50 [5] [µM] | AC50 (Histamine H2 receptor) [µM] | AC50 [6] [µM] | AC50 [7] [µM] | AC50 [8] [µM] | AC50 [9] [µM] | AC50 [10] [µM] | AC50 [11] [µM] | AC50 (Thromboxane A2 receptor) [µM] | AC50 [12] [µM] |
| --- | --- | --- | --- | --- | --- | --- | --- | --- | --- | --- | --- | --- | --- | --- | --- | --- |
| CO/N=C(\C(=O)N[C@@H]1C(=O)N2C(C(=O)O)=C(CSc3nnnn3C)CS[C@H]12)c1csc(N)n1 [CEFMENOXIME] | > 30 | > 30 | > 30 | > 30 | > 30 | > 30 | > 30 | > 30 | > 30 | > 30 | > 30 | > 30 | – | – | – | – |
| OC(CNCC(O)C1CCc2cc(F)ccc2O1)C1CCc2cc(F)ccc2O1 (configuration not stated) [NEBIVOLOL] | > 30 | – | > 30 | > 30 | > 30 | > 30 | 4.6 | > 30 | > 30 | 8.8 | 0.75 | > 30 | > 30 | > 30 | > 30 | – |
| COc1ccccc1N1CCN(CCCNc2cc(=O)n(C)c(=O)n2C)CC1 | > 30 | – | > 30 | > 30 | > 30 | > 30 | > 30 | > 30 | > 30 | 20 | 9.5 | 9.5 | > 30 | > 30 | > 30 | – |
| C/C(O)=C(\C#N)C(=O)Nc1ccc(C(F)(F)F)cc1 [TERIFLUNOMIDE] | > 30 | > 30 | > 30 | > 30 | – | > 30 | > 30 | – | > 30 | > 30 | > 30 | > 30 | – | > 30 | – | > 30 |
| O=C(O)C1=C(CSc2nnnn2CS(=O)(=O)O)CS[C@@H]2[C@H](NC(=O)[C@H](O)c3ccccc3)C(=O)N12 [CEFONICID] | > 30 | > 30 | > 30 | > 30 | > 30 | – | > 30 | > 30 | > 30 | > 30 | 30 | > 30 | > 30 | > 30 | > 30 | – |
| CC1(C)O[C@@H]2C[C@H]3[C@@H]4CCC5=CC(=O)C=C[C@]5(C)[C@H]4[C@@H](O)C[C@]3(C)[C@]2(C(=O)CO)O1 [DESONIDE] | > 10 | > 10 | > 30 | > 10 | – | > 30 | > 10 | > 10 | > 10 | > 10 | > 10 | > 30 | > 10 | > 30 | > 10 | > 10 |
| CCc1c(Cl)c(O)c(Cl)c(O)c1C(=O)O[C@H]1[C@H](O)[C@H](OC)[C@H](OC/C2=C\C=C\C[C@H](O)/C(C)=C/[C@H](CC)[C@@H](O[C@@H]3OC(C)(C)[C@@H](OC(=O)C(C)C)[C@H](O)[C@@H]3O)/C(C)=C/C(C)=C/C[C@@H]([C@@H](C)O)OC2=O)O[C@@H]1C [FIDAXOMICIN] | > 30 | > 10 | > 30 | – | 7.9 | – | > 30 | – | > 30 | > 30 | > 30 | > 30 | > 10 | > 30 | > 30 | – |
| CC(C(=O)O)c1ccc(N2Cc3ccccc3C2=O)cc1 (configuration not stated) [INDOPROFEN] | > 30 | > 30 | > 30 | > 30 | > 30 | – | > 30 | > 30 | > 30 | > 30 | > 30 | > 30 | > 30 | > 30 | > 30 | – |
| CCN(CC)C(=O)N[C@H]1C[C@@H]2c3cccc4[nH]cc(c34)C[C@H]2N(C)C1 [TERGURIDE] | > 30 | 3.2 | > 30 | > 30 | > 30 | > 30 | > 30 | 15 | 0.48 | 0.58 | > 30 | > 30 | > 30 | > 30 | – | – |
| CC(Oc1c(Cl)cccc1Cl)C1=NCCN1 (configuration not stated) [LOFEXIDINE] | > 30 | > 30 | > 30 | > 30 | > 30 | – | > 30 | > 30 | > 30 | > 30 | 11 | > 30 | > 30 | > 30 | > 30 | – |
| CC(C)=CCC/C(C)=C/C=C/C(C)=C/C=C/C(C)=C/C=C/C=C(C)/C=C/C=C(C)/C=C/C=C(\C)CCC=C(C)C [LYCOPENE] | > 30 | > 30 | > 30 | > 30 | > 30 | – | > 30 | > 30 | > 30 | > 30 | > 30 | > 30 | > 30 | > 30 | > 30 | – |
| C[C@]1(O)CC[C@H]2[C@@H]3CCC4=CC(=O)CC[C@]4(C)[C@@]3(F)[C@@H](O)C[C@@]21C [FLUOXYMESTERONE] | > 10 | > 10 | > 10 | > 10 | – | – | > 10 | > 30 | > 10 | > 10 | > 10 | > 30 | > 10 | > 30 | > 10 | > 10 |
| C#C[C@]1(O)CC[C@H]2[C@@H]3CCc4cc(OC5CCCC5)ccc4[C@H]3CC[C@@]21C [QUINESTROL] | > 10 | > 10 | > 10 | > 10 | – | – | > 10 | > 10 | > 10 | > 10 | > 10 | > 30 | > 10 | > 30 | > 10 | > 10 |
